Data as given in the supplement of paper PMC10307832.

Tests used:
Assay in all cases: relative viability (nuclei count vs DMSO), 5 days (fraction); higher = more cells survive
DM3189 = compound: C1CN(CCN1)C2=CC=C(C=C2)C3=CN4C(=C(C=N4)C5=CC=NC6=CC=CC=C56)N=C3 [DM3189]
Procedure, shortened: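 Acceptance criteria were a control CV below 25% and at least one doubling per plate. Lung cancer cell lines in 1536-well plates got five library-drug doses (not always all listed) √10 apart by pinning and were left 5 days with no medium change. Viability divides treated-well nuclei by vehicle-well nuclei and is the median across plates. Nuclei were counted by MetaXpress from 4× Hoechst images.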

DM3189 + Crizotinib = compound: C1CN(CCN1)C2=CC=C(C=C2)C3=CN4C(=C(C=N4)C5=CC=NC6=CC=CC=C56)N=C3 [DM3189] + C[C@@H](Oc1cc(-c2cnn(C3CCNCC3)c2)cnc1N)c1c(Cl)ccc(F)c1Cl [Crizotinib] (partner 1 µM)
Procedure, shortened: (§1)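 Nuclei were stained with Hoechst during a one-step fixation (final 0.05% Triton X-100, 1% formaldehyde, 1 ug/ml Hoechst) carried out 5 days after dosing, then counted on 4× images. The cells, lung cancer lines in 1536-well plates, had been dosed by pin tool the day after seeding with one drug alone or a fixed anchor-drug dose plus five library-drug doses (not always all listed) in √10 steps. Relative viability is the nuclei count in treated wells divided by that in vehicle wells, and each value is the median of duplicate plates.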

DM3189 + Vorinostat = compound: C1CN(CCN1)C2=CC=C(C=C2)C3=CN4C(=C(C=N4)C5=CC=NC6=CC=CC=C56)N=C3 [DM3189] + O=C(CCCCCCC(=O)Nc1ccccc1)NO [Vorinostat] (partner 1 µM)
Procedure, shortened: as §1

DM3189 + Linsitinib = compound: C1CN(CCN1)C2=CC=C(C=C2)C3=CN4C(=C(C=N4)C5=CC=NC6=CC=CC=C56)N=C3 [DM3189] + C[C@]1(O)C[C@@H](c2nc(-c3ccc4ccc(-c5ccccc5)nc4c3)c3c(N)nccn32)C1 [Linsitinib] (partner 1 µM)
Procedure, shortened: as §1

DM3189 + Luminespib = compound: C1CN(CCN1)C2=CC=C(C=C2)C3=CN4C(=C(C=N4)C5=CC=NC6=CC=CC=C56)N=C3 [DM3189] + CCNC(=O)c1noc(-c2cc(C(C)C)c(O)cc2O)c1-c1ccc(CN2CCOCC2)cc1 [Luminespib] (partner 0.01 µM)
Procedure, shortened: as §1

Cell Line	relative viability (DM3189; 0.08 µM)	relative viability (DM3189; 0.253 µM)	relative viability (DM3189; 0.8 µM)	relative viability (DM3189; 2.53 µM)	relative viability (DM3189 + Crizotinib; first compound 0.08 µM)	relative viability (DM3189 + Crizotinib; first compound 0.8 µM)	relative viability (DM3189 + Crizotinib; first compound 2.53 µM)	relative viability (DM3189 + Vorinostat; first compound 0.08 µM)	relative viability (DM3189 + Vorinostat; first compound 0.253 µM)	relative viability (DM3189 + Vorinostat; first compound 0.8 µM)	relative viability (DM3189 + Vorinostat; first compound 2.53 µM)	relative viability (DM3189 + Linsitinib; first compound 0.08 µM)	relative viability (DM3189 + Linsitinib; first compound 0.253 µM)	relative viability (DM3189 + Linsitinib; first compound 0.8 µM)	relative viability (DM3189 + Linsitinib; first compound 2.53 µM)	relative viability (DM3189 + Luminespib; first compound 0.08 µM)	relative viability (DM3189 + Luminespib; first compound 0.253 µM)	relative viability (DM3189 + Luminespib; first compound 0.8 µM)	relative viability (DM3189 + Luminespib; first compound 2.53 µM)	relative viability (DM3189 + Crizotinib; first compound 0.253 µM)
IA-LM	1.2	1.11	1.06	1.21	0.857	1.01	1.11	0.962	1.11	1.1	1.04	0.699	0.682	0.51	0.901					
NCI-H522	1.27	0.891	0.882	0.886				1.1	0.832	0.855	0.988					1.31	0.984	1.27	1.16	
NCI-H1395	1.03	0.834	0.697	0.945				1.08	0.616		0.731	0.979	1.05	0.695	1.03	0.662	0.589	0.492	0.646	
NCI-H1563	1.06	0.958	1.03	1.12	0.944	0.833	0.899					1.2	1.22	1.13	1.25	0.568	0.487	0.481	0.539	0.865
NCI-H1650	1.09	0.923	0.901	0.928	0.896	1.15	0.717	0.505	0.539	0.638	0.644					0.183	0.183	0.188	0.197	0.851
NCI-H1703	0.951	0.916	0.825	0.767	0.763	0.524	0.548					0.597	0.635	0.575	0.693					0.747
NCI-H1792	1.27	1	0.712	0.868	0.861	0.887	0.441					0.409	0.532	0.449	0.315	0.416	0.552	0.445	0.328	0.992
NCI-H1793	1.22	0.991	0.929	1.01				0.993	0.633	0.911	1.12	1.09	0.997	0.937	1.21	0.184	0.196	0.171	0.174	
NCI-H2170	1.06	1.01	0.981	0.946	1.31	1.24	1.09	0.921	0.811	0.725	0.658					0.939	0.836	0.762	0.764	1.27
SW 900	1.06	0.694	0.882	0.887				0.469		0.442	0.383					0.174	0.166	0.156	0.196	
